Test results from patent US20250199015A1, “CYCLIN-DEPENDENT KINASE 2 INHIBITORS FOR MEDICAL TREATMENT” (INCYCLIX BIO, LLC, priority 2022, published 2025).

System: pRb (S780) in therapy-resistant T47D/MCF7M cells
Assay: Western blot Rb phosphorylation in therapy-resistant cells
Format: cell-based, human
Conditions: combined with a CDK4/6i and/or estrogen therapy, 7 days
Protocol: Retinoblastoma (Rb) phosphorylation status analysis was then conducted in therapy-resistant cells by Western blotting. The T47D human breast carcinoma cell line was grown in RPMI-1640/1× Glutamax/1× Insulin/10% fetal bovine serum and was plated in Corning 6 well tissue culture treated plates. Cells were incubated at 37° C. for 24 hours prior to addition of treatment. Treatments were either DMSO, Compound I, or abemaciclib alone, or Compound I in combination with abemaciclib. Cells were treated for 7 days. All Abemaciclib treated cells received 500 nM Abemaciclib. […] Supernatant was removed, pellet resuspended in 250 μL of 1× Cell Lysis buffer (CST #9803, 1 tablet of PhosSTOP, 1 tablet of complete Protease Inhibitor Cocktail in 5 mL) then incubated on ice for 20 mins. Lysate was centrifuged at 21,000×g for 20 min at 4° C. and supernatant transferred to clean tubes. A DC assay was performed to determine the protein concentration of each lysate. 20 μg of protein was mixed with Laemelli buffer (+5% BME) before being run on homemade 15% gels. For samples normalized to cell number (p-RB and total RB), cells were washed in ice-cold PBS. Cells were counted and 500,000 cells were aliquoted into clean tubes. Cells were centrifuged at 500×g for 4 mins at 4° C. and supernatant discarded. Cell pellets were directly lysed in 100 μL of Laemmli buffer (+5% BME) and boiled at 95° C. for 12 min. […]

NS(=O)(=O)c1ccc(Nc2ncc3cc4n(c3n2)C2(CCCCC2)C(=O)NN4)cc1 [Compound I]
Rb phosphorylation in therapy-resistant cells: prevents the phosphorylation
